Results on one compound are retold here after patent US8575178B2, “Isothiazolo-pyrimidinedione derivatives as TRPA1 modulators” (Glenmark Pharmaceuticals S.A., priority 2009, dated 2013).

Broadly, the inhibition is the drop in the measured response relative to a control, in per cent.

One assay has as its target T1, rat TRPA1 (Rattus norvegicus, UniProt Q6RI86).
T1 construct: expressed in transfected cells; host or cells: CHO cells (Zeocin selection)
Kind of assay: 45Calcium uptake assay, inhibition of AITC induced calcium uptake in rat TRPA1 expressing CHO cells. The settings on record: AITC 10 μM. Format: cell-based. The source says:
(§1) The illustrative examples of the present invention are screened for TRPA1 activity according to a modified procedure described in (a) Tóth, A. et al. Life Sciences, 2003, 73, 487-498. (b) McNamara C, R. et al, Proc. Natl. Acad. Sci. U.S.A., 2007, 104, 13525-13530. The screening of the compounds can be carried out by other methods and procedures known to persons skilled in the art.
(§2) Screening for TRPA1 Antagonist Using the ^45Calcium Uptake Assay:
(§3) The inhibition of TRPA1 receptor activation was measured as inhibition of allyl isothiocyanate (AITC) induced cellular uptake of radioactive calcium.
(§4) Test compounds were dissolved in 100% DMSO to prepare 10 mM stock and then diluted using plain medium with 0.1% BSA and 1.8 mM CaCl2 to get the desired concentration. The final concentration of DMSO in the reaction was 0.5% (v/v). Human TRPA1 expressing CHO cells were grown in F-12 DMEM medium with 10% FBS, 1% penicillin-streptomycin solution, and 400 μg/ml of G-418. Rat TRPA1 expressing CHO cells were grown in F-12 DMEM medium with 10% FBS, 1% penicillin-streptomycin solution, and 400 μg/ml of Zeocin. Cells were seeded 24 h prior to the assay in 96 well plates so as to get ˜50,000 cells per well on the day of experiment. Cells were treated with the test compounds for 10 minutes followed by the addition of AITC at a final concentration of 30 μM (for human TRPA1) and/or 10 μM (for rat TRPA1) and 5 μCi/ml ^45Ca^+2 for 3 minutes. Cells were washed and lysed using a buffer containing 1% Triton X-100, 0.1% deoxycholate and 0.1% SDS. Radioactivity in the lysate was measured in a Packard TopCount after addition of liquid scintillant. (Toth et al, Life Sciences (2003) 73, 487-498; McNamara C R et al, Proceedings of the National Academy of Sciences, (2007) 104, 13525-13530).
(§5) Concentration response curves were plotted as a % of maximal response obtained in the absence of test antagonist. IC50 values can be calculated from concentration response curve by nonlinear regression analysis using GraphPad PRISM software.

In the next assay the target is T2, human TRPA1 (Homo sapiens, UniProt O75762).
T2 construct: expressed in transfected cells; host or cells: CHO cells (G-418 selection)
T2 sequence (O75762 whole entry): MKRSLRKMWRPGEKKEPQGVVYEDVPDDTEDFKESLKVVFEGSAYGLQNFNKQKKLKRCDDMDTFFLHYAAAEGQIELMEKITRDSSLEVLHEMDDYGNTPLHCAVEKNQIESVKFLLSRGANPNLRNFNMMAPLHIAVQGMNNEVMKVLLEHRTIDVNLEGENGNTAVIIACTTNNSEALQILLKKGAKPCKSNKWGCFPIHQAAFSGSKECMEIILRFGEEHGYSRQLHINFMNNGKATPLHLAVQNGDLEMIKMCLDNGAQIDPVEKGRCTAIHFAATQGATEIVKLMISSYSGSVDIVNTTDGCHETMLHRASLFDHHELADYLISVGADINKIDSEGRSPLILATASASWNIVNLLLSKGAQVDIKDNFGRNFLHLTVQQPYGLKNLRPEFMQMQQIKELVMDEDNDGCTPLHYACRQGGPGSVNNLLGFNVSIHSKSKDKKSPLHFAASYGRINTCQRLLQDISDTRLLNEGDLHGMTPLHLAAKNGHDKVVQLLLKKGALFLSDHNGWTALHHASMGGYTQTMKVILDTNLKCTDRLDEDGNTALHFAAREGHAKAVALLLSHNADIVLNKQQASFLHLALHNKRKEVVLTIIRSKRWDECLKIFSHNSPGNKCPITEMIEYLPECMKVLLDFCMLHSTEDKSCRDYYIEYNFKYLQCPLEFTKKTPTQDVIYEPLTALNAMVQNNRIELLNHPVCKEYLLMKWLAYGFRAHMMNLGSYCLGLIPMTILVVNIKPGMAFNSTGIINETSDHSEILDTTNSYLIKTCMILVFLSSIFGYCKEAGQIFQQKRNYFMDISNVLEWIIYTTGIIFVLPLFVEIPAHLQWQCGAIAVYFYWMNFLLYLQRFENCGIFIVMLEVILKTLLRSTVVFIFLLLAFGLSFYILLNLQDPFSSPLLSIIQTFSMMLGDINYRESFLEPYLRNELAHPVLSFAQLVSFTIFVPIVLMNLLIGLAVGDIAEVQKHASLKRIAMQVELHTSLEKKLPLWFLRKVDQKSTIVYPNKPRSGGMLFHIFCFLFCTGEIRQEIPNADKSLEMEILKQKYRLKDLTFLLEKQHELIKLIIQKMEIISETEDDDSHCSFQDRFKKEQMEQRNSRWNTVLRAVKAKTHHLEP
Kind of assay: 45Calcium uptake assay, inhibition of AITC induced calcium uptake in human TRPA1 expressing CHO cells. In kind it is cell-based. The settings on record: AITC 30 μM.
Description: as §1, §2, §3, §4, §5

T1 sequence (Q6RI86 whole entry): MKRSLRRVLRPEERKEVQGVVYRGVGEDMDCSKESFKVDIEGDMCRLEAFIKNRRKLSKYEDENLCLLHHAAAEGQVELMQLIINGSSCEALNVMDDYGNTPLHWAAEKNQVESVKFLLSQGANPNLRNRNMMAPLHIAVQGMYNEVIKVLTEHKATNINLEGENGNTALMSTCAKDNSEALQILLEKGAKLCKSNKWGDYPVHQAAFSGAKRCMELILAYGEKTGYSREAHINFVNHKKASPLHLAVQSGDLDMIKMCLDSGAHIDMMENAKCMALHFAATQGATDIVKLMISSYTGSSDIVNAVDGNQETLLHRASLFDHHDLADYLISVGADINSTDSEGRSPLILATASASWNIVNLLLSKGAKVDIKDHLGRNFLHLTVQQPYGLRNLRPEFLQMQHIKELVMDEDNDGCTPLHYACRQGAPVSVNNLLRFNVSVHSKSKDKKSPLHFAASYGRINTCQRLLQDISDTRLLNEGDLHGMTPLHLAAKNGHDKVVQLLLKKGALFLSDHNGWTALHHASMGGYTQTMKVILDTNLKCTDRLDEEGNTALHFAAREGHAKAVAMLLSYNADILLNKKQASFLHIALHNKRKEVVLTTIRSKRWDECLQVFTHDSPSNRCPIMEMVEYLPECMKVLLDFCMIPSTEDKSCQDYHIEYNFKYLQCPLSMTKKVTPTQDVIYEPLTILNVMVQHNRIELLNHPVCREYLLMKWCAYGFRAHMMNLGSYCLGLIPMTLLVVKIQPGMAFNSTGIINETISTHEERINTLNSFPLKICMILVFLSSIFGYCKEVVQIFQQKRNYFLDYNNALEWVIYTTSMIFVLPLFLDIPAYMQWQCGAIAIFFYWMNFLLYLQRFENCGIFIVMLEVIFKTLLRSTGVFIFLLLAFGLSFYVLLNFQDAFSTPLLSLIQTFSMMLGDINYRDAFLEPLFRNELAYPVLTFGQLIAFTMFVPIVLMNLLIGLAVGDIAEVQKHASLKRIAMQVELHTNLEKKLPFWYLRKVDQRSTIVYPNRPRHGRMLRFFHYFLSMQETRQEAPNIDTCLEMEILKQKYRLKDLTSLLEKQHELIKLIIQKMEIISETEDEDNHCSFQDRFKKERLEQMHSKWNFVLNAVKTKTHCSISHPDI

As to `Cn1c(=O)c2c(CC(=O)Nc3nc(-c4ccc(C(F)(F)F)c(F)c4F)cs3)nsc2n(C)c1=O` [Example 39, N-{4-[2,3-Difluoro-4-(trifluoromethyl)phenyl]-1,3-thiazol-2-yl}-2-(5,7-dimethyl-4,6-dioxo-4,5,6,7-tetrahydro[1,2]thiazolo[5,4-d]pyrimidin-3-yl)acetamide], the inhibition at 1 µM at rat TRPA1 (1.0 μM compound, read-out: rat TRPA1 Percentage inhibition at 1.0 μM) came out at 96.5%; at human TRPA1 (1.0 μM compound, read-out: human TRPA1 Percentage inhibition at 1.0 μM), 99.8%. Also, the inhibition at 10 µM on rat TRPA1 (10.0 μM compound, read-out: rat TRPA1 Percentage inhibition at 10.0 μM) came out at 95.8%; at human TRPA1 (10.0 μM compound, read-out: human TRPA1 Percentage inhibition at 10.0 μM), 99.9%.
